How the values were obtained:
CDK1/Cyclin B = target: T1, CDK1/Cyclin B (Homo sapiens, UniProt P06493); assay: Enzymatic assay for CDK1 (LANCE Ultra kinase assay, FRET based); format: biochemical; conditions: ATP at Km; read-out: CDK1 enzymatic activity IC50
T1 construct: purchased Invitrogen PR4768C
In short: (§1)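 FRET read-out: Eu-labeled anti-phospho-antibody binding a phosphorylated ULight peptide. Purified CDK–cyclin complex, ATP at Km.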

OVCAR-3 = OVCAR-3 viability assay (CellTiter-Glo, 72 hours); format: cell-based; conditions: Homo sapiens; OVCAR-3 cells
In short: (§2)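 CellTiter-Glo luminescence read-out after 72 h compound exposure at 37° C, 5% CO2, duplicates. Seeding densities: MV4-11 1×10^4 cells/well, OVCAR-3 5×10^3, A2780 1×10^3. Dose range 0.0015 uM to 10 uM, added 24 h post-plating; DMSO control, final <0.1%.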

CDK5/p25 = target: T2, CDK5/p25 (Homo sapiens, UniProt Q00535); assay: Enzymatic assay for CDK5 (LANCE Ultra kinase assay, FRET based); format: biochemical; conditions: ATP at Km
T2 construct: purchased Invitrogen PR8543B
In short: (§3)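 Inhibition was measured at ATP Km with 68 nM ULight-MBP peptide and CDK2/Cyclin A ([…]) or CDK5/p25 ([…]), using 8-dose 4-fold compound dilutions from DMSO. Kinase reaction ran 60 min at 23° C, then Eu anti-phospho-MBP plus EDTA were added for another 60 min before the fluorescence read.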

CDK7/Cyclin H/MNAT1 = target: T3, CDK7/Cyclin H/MNAT1 (Homo sapiens, UniProt P50613); assay: Enzymatic assay for CDK7 (LANCE Ultra kinase assay, FRET based); format: biochemical; conditions: for IC50: ATP at Km
T3 construct: purchased Invitrogen PR6749B
In short: as §1

CDK2/Cyclin A = target: T4, CDK2/Cyclin A (Homo sapiens, UniProt P24941); assay: Enzymatic assay for CDK2 (LANCE Ultra kinase assay, FRET based); format: biochemical; conditions: ATP at Km
T4 construct: purchased Invitrogen PV6290
In short: as §3

A2780 = A2780 viability assay (CellTiter-Glo, 72 hours); format: cell-based; conditions: Homo sapiens; A2780 cells
In short: as §2

T2 sequence (Q00535 whole entry): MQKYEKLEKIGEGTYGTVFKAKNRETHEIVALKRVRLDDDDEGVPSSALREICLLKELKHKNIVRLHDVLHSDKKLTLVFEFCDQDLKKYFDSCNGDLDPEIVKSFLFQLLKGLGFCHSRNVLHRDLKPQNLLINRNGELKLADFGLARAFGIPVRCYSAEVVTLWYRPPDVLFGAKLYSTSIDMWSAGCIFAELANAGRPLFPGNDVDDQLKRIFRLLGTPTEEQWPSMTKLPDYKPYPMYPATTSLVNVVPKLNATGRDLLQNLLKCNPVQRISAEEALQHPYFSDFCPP
T2 sequence (Q15078 99-307 partner limits assumed): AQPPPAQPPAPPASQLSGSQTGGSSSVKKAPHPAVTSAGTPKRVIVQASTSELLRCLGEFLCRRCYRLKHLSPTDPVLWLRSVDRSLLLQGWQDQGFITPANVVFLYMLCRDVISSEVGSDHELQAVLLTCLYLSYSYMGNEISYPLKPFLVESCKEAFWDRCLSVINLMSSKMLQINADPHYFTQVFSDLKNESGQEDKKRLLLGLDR
T3 sequence (P50613 whole entry): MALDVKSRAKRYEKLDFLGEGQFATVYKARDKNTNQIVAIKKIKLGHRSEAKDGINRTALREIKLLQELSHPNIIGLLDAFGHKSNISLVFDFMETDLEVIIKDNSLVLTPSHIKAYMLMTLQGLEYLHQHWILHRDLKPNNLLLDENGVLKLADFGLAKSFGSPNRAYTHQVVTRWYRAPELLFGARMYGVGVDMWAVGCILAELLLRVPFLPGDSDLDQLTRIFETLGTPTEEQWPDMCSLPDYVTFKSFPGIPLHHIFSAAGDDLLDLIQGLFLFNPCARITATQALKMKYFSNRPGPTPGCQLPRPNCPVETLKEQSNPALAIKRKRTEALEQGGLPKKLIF
T3 sequence (P51946 whole entry partner): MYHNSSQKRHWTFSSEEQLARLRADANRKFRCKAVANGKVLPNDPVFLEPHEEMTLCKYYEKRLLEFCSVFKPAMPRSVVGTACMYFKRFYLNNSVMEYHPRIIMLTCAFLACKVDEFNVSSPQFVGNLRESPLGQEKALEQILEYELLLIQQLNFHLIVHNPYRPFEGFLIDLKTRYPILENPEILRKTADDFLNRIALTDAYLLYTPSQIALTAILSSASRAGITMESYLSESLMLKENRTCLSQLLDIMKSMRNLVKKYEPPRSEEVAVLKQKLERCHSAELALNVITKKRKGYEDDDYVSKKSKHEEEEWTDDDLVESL
T3 sequence (P51948 whole entry partner): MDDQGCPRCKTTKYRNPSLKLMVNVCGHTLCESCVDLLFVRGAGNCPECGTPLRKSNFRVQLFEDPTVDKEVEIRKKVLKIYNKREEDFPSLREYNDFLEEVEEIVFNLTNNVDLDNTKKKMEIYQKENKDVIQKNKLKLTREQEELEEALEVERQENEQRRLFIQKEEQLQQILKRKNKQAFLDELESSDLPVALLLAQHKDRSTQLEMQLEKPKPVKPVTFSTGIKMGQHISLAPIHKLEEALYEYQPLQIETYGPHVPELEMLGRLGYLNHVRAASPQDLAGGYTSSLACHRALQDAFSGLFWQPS
T1 sequence (P06493 whole entry): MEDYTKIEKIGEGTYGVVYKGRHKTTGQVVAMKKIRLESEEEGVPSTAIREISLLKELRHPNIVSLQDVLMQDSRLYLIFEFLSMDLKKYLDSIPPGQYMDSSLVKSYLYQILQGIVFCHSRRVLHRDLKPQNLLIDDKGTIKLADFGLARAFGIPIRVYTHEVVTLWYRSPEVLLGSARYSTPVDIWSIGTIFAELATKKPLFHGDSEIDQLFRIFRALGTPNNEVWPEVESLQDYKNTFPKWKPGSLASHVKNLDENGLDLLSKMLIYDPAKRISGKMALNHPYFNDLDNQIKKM
T1 sequence (P14635 whole entry partner): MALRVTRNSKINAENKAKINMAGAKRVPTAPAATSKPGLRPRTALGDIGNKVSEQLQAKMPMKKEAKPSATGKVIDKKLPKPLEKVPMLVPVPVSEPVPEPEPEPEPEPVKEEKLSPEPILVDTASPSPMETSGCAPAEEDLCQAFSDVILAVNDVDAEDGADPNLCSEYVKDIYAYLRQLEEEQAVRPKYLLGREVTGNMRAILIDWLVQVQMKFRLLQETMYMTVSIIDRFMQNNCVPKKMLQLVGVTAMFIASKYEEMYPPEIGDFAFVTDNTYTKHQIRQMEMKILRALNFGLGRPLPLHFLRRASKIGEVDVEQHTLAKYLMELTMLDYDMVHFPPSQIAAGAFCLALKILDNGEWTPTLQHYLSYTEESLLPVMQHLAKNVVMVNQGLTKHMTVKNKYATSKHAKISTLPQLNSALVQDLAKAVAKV

Row | SMILES | IC50 (CDK1/Cyclin B) [nM] | IC50 (OVCAR-3) [nM] | IC50 (CDK5/p25) [nM] | IC50 (CDK7/Cyclin H/MNAT1) [nM] | CDK1/CDK7: Selectivity of CDK7 inhibition over CDK1 inhibition (CDK7/Cyclin H/MNAT1) | CDK2/CDK7: Selectivity of CDK7 inhibition over CDK2 inhibition (CDK7/Cyclin H/MNAT1) | CDK5/CDK7: Selectivity of CDK7 inhibition over CDK5 inhibition (CDK7/Cyclin H/MNAT1) | IC50 (CDK2/Cyclin A) [nM] | IC50 (A2780) [nM]
1 | C=C(F)C(=O)Nc1ccc2c(-c3ccccc3CNc3nc(N[C@H]4CCCNC4)nc4c(C(C)C)cnn34)nccc2c1 [Compound 161] | > 1000 | < 1000 | > 1000 | < 100 | A (A indicates [fold] > 500) | A (A indicates [fold] > 500) | A (A indicates [fold] > 500) | > 1000 | < 1000
2 | CC(C)c1cnn2c(NCc3ccccc3-c3nccc4cc(NC(=O)/C=C/CN(C)C)ccc34)nc(N3CCC4(CCN(C)CC4)CC3)nc12 [Compound 128] | > 1000 | < 1000 | > 1000 | < 100 | A (A indicates [fold] > 500) | A (A indicates [fold] > 500) | A (A indicates [fold] > 500) | > 1000 | < 1000
3 | C=C(F)C(=O)Nc1ccc2c(-c3ccccc3CNc3cc(NC[C@H]4CCNC[C@@H]4O)nc4c(C(C)C)cnn34)nccc2c1 [Compound 82] | > 1000 | < 1000 | > 1000 | < 100 | A (A indicates [fold] > 500) | A (A indicates [fold] > 500) | A (A indicates [fold] > 500) | > 1000 | < 1000
4 | C=C(F)C(=O)Nc1ccc2c(-c3ccccc3CNc3nc(N4CCc5ncccc5C4)nc4c(C(C)C)cnn34)nccc2c1 [Compound 170] | > 1000 | 1000 to 10000 | > 1000 | 100 to 1000 | B (B indicates 50 < [fold] ≤ 500) | B (B indicates 50 < [fold] ≤ 500) | B (B indicates 50 < [fold] ≤ 500) | > 1000 | < 1000
5 | C=C(F)C(=O)Nc1ccc2c(-c3ccccc3CNc3nc(N4CCCC(OC)CC4)nc4c(C(C)C)cnn34)nccc2c1 (stereo not drawn) [Compound 100] | > 1000 | 1000 to 10000 | > 1000 | > 1000 | C (C indicates [fold] ≤ 50) | C (C indicates [fold] ≤ 50) | C (C indicates [fold] ≤ 50) | > 1000 | 1000 to 10000
6 | C=CC(=O)Nc1cccc2ccc(-c3cccc(C)c3CNc3nc(N[C@H]4CC[C@H](OC)CC4)nc4c(C(C)C)cnn34)nc12 [Compound 112] | > 1000 | < 1000 | > 1000 | 100 to 1000 | B (B indicates 50 < [fold] ≤ 500) | B (B indicates 50 < [fold] ≤ 500) | B (B indicates 50 < [fold] ≤ 500) | > 1000 | < 1000
7 | CC(C)c1cnn2c(NCc3ccccc3-c3nccc4cc(NC(=O)/C=C/CN(C)C)ccc34)nc(NC3CCS(=O)(=O)CC3)nc12 [Compound 107] | > 1000 | < 1000 | > 1000 | 100 to 1000 | B (B indicates 50 < [fold] ≤ 500) | B (B indicates 50 < [fold] ≤ 500) | B (B indicates 50 < [fold] ≤ 500) | > 1000 | < 1000
8 | C=C(F)C(=O)Nc1ccc2c(-c3ccccc3CNc3nc(NC[C@@H]4CCNC[C@@H]4O)nc4c(C(C)C)cnn34)nccc2c1 [Compound 162] | > 1000 | 1000 to 10000 | > 1000 | < 100 | A (A indicates [fold] > 500) | A (A indicates [fold] > 500) | A (A indicates [fold] > 500) | > 1000 | < 1000
9 | C=C(F)C(=O)Nc1ccc2c(-c3ccccc3CNc3nc(N[C@@H]4CC[C@@H](C)NC4)nc4c(C(C)C)cnn34)nccc2c1 [Compound 163] | > 1000 | < 1000 | > 1000 | < 100 | A (A indicates [fold] > 500) | A (A indicates [fold] > 500) | A (A indicates [fold] > 500) | > 1000 | < 1000
10 | CO[C@H]1CC[C@H](Nc2nc(NCc3c(C)cccc3-c3ccc4cccc(NC(=O)/C=C/CN(C)C)c4n3)n3ncc(C(C)C)c3n2)CC1 [Compound 127] | > 1000 | < 1000 | > 1000 | 100 to 1000 | B (B indicates 50 < [fold] ≤ 500) | B (B indicates 50 < [fold] ≤ 500) | B (B indicates 50 < [fold] ≤ 500) | > 1000 | < 1000
11 | CC(C)c1cnn2c(NCc3ccccc3-c3nccc4cc(NC(=O)/C=C/CN(C)C)ccc34)nc(N[C@H]3CC[C@H](C)NC3)nc12 [Compound 151] | > 1000 | < 1000 | > 1000 | < 100 | A (A indicates [fold] > 500) | A (A indicates [fold] > 500) | A (A indicates [fold] > 500) | > 1000 | < 1000
12 | C=C(F)C(=O)Nc1ccc2c(-c3ccccc3CNc3nc(NC4CCCNC4)nc4c(C(C)C)cnn34)nccc2c1 (stereo not drawn) [Compound 172] | > 1000 | < 1000 | > 1000 | < 100 | A (A indicates [fold] > 500) | A (A indicates [fold] > 500) | A (A indicates [fold] > 500) | > 1000 | < 1000
13 | C=CC(=O)Nc1ccc2c(-c3ccccc3CNc3cc(N[C@H]4CC[C@H](OC)CC4)nc4c(C(C)C)cnn34)nccc2c1 [Compound 116] | > 1000 | < 1000 | > 1000 | < 100 | A (A indicates [fold] > 500) | A (A indicates [fold] > 500) | A (A indicates [fold] > 500) | > 1000 | < 1000
14 | C=C(F)C(=O)Nc1ccc2c(-c3ccccc3CNc3nc(NC[C@H]4CCN(CC)C[C@@H]4O)nc4c(C(C)C)cnn34)nccc2c1 [Compound 169] | > 1000 | < 1000 | > 1000 | < 100 | B (B indicates 50 < [fold] ≤ 500) | B (B indicates 50 < [fold] ≤ 500) | B (B indicates 50 < [fold] ≤ 500) | > 1000 | < 1000
15 | CC(C)c1cnn2c(NCc3ccccc3-c3nccc4cc(NC(=O)/C=C/CN(C)C)ccc34)nc(NCC3CCN(C)CC3)nc12 [Compound 133] | > 1000 | < 1000 | > 1000 | < 100 | A (A indicates [fold] > 500) | A (A indicates [fold] > 500) | A (A indicates [fold] > 500) | > 1000 | < 1000
16 | CC(C)c1cnn2c(NCc3ccccc3-c3nccc4cc(NC(=O)/C=C/CN(C)C)ccc34)nc(N3CCC4(CC3)OCCO4)nc12 [Compound 110] | > 1000 | < 1000 | > 1000 | < 100 | B (B indicates 50 < [fold] ≤ 500) | B (B indicates 50 < [fold] ≤ 500) | B (B indicates 50 < [fold] ≤ 500) | > 1000 | < 1000
17 | COC1CC2CCC(C1)N2c1cc(NCc2ccccc2-c2nccc3cc(NC(=O)/C=C/CN(C)C)ccc23)n2ncc(C(C)C)c2n1 (stereo not drawn) [Compound 125] | > 1000 | < 1000 | > 1000 | 100 to 1000 | B (B indicates 50 < [fold] ≤ 500) | B (B indicates 50 < [fold] ≤ 500) | B (B indicates 50 < [fold] ≤ 500) | > 1000 | < 1000
